Results as given in patent US20170354655A1, “TLR INHIBITOR AND BRUTON'S TYROSINE KINASE INHIBITOR COMBINATIONS” (Pharmacyclics LLC, priority 2014, published 2017).

Experiments:
[1] = system: TMD8 cells; experiment: Combined drug treatment with 5Z-7-Oxozeaenol and ibrutinib, CellTiter-Glo cell viability in TMD8 cell line; format: cell-based
Protocol: A 40 μL aliquot of CellTiter-Glo® reagent was added directly into each well of the 96-W plate. The plate was then shaken on a Shaker (Labsystem Wellmix) at speed 5 for 10-20 min at room temperature. Next, about 100 μL of the mixed medium was transferred to a white, non-transparent, flat bottom 96-W plate for assaying. A Flexstation 3 luminometer was used for detecting and measuring the luminescent signals. Measurements were taken at room temperature.
The luminescent measurements were subsequently processed and analyzed using CalcuSyn (CI) and Chalice Analyzer (synergy score). CalcuSyn performs the multiple drug dose-effect calculations using the Median Effect methods described by T-C Chou and P. Talalay in “Analysis of combined drug effects: a new look at a very old problem,” Trends Pharmacol. Sci. 4:450-454 (1983). In general, the resulting combination index (CI) obtained from the Chou-Talalay method defines quantitatively for additive effect (CI=1), synergism (CI<1), and antagonism (CI>1) in drug combinations. Chalice Analyzer utilizes the method described in Lehar et al. “Synergistic drug combinations improve therapeutic selectivity,” Nat. Biotechnol. 27(7):659-666 (2009). Synergy scores is higher than 1 indicate synergy between two compounds, with higher synergy scores indicating better synergy.
200 μl of TMD8 wt cells (1.0×10^4 cells) at 5.0×10^4 cells/ml was plated into each well of a 96-well plate. The cells were grown in RPMI-10P medium.
The TAK1 inhibitor used for this experiment was 5Z-7-oxozeaenol. […] The stock solution for chloroquine diphosphate was prepared at 20 mM concentration. The CellTiter-Glo® assay follow the protocols of Example 1.

[2] = system: patients who have the activated B-cell like (ABC) subtype of DLBCL; conditions: cited from earlier work

COc1cc(O)c2c(c1)/C=C/C[C@H](O)[C@H](O)C(=O)/C=C\C[C@H](C)OC2=O [5Z-7-Oxozeaenol, 5Z-7-oxozeaenol]
luminescent signal (CellTiter-Glo) ([1]; 5Z-7-OXO 1 nM, ibrutinib 0 nM): 259932
luminescent signal (CellTiter-Glo) ([1]; 5Z-7-OXO 1 nM, ibrutinib 0.00026 nM): 249856
luminescent signal (CellTiter-Glo) ([1]; 5Z-7-OXO 1 nM, ibrutinib 0.00128 nM): 259290
luminescent signal (CellTiter-Glo) ([1]; 5Z-7-OXO 1 nM, ibrutinib 0.0064 nM): 236187
luminescent signal (CellTiter-Glo) ([1]; 5Z-7-OXO 1 nM, ibrutinib 0.032 nM): 249545
luminescent signal (CellTiter-Glo) ([1]; 5Z-7-OXO 1 nM, ibrutinib 0.16 nM): 181569
luminescent signal (CellTiter-Glo) ([1]; 5Z-7-OXO 1 nM, ibrutinib 0.8 nM): 127363
luminescent signal (CellTiter-Glo) ([1]; 5Z-7-OXO 1 nM, ibrutinib 4 nM): 98378.9
luminescent signal (CellTiter-Glo) ([1]; 5Z-7-OXO 1 nM, ibrutinib 20 nM): 98536.7
luminescent signal (CellTiter-Glo) ([1]; 5Z-7-OXO 1 nM, ibrutinib 100 nM): 78834.1
luminescent signal (CellTiter-Glo) ([1]; 5Z-7-OXO 10 nM, ibrutinib 0 nM): 277804
luminescent signal (CellTiter-Glo) ([1]; 5Z-7-OXO 10 nM, ibrutinib 0.00026 nM): 260616
luminescent signal (CellTiter-Glo) ([1]; 5Z-7-OXO 10 nM, ibrutinib 0.00128 nM): 241442
luminescent signal (CellTiter-Glo) ([1]; 5Z-7-OXO 10 nM, ibrutinib 0.0064 nM): 223023
luminescent signal (CellTiter-Glo) ([1]; 5Z-7-OXO 10 nM, ibrutinib 0.032 nM): 222768
luminescent signal (CellTiter-Glo) ([1]; 5Z-7-OXO 10 nM, ibrutinib 0.16 nM): 175048
luminescent signal (CellTiter-Glo) ([1]; 5Z-7-OXO 10 nM, ibrutinib 0.8 nM): 120925
luminescent signal (CellTiter-Glo) ([1]; 5Z-7-OXO 10 nM, ibrutinib 4 nM): 96219.6
luminescent signal (CellTiter-Glo) ([1]; 5Z-7-OXO 10 nM, ibrutinib 20 nM): 86196
luminescent signal (CellTiter-Glo) ([1]; 5Z-7-OXO 10 nM, ibrutinib 100 nM): 86511.6
luminescent signal (CellTiter-Glo) ([1]; 5Z-7-OXO 100 nM, ibrutinib 0 nM): 167090
luminescent signal (CellTiter-Glo) ([1]; 5Z-7-OXO 100 nM, ibrutinib 0.00026 nM): 168173
luminescent signal (CellTiter-Glo) ([1]; 5Z-7-OXO 100 nM, ibrutinib 0.00128 nM): 147600
luminescent signal (CellTiter-Glo) ([1]; 5Z-7-OXO 100 nM, ibrutinib 0.0064 nM): 151829
luminescent signal (CellTiter-Glo) ([1]; 5Z-7-OXO 100 nM, ibrutinib 0.032 nM): 130054
luminescent signal (CellTiter-Glo) ([1]; 5Z-7-OXO 100 nM, ibrutinib 0.16 nM): 98728.8
luminescent signal (CellTiter-Glo) ([1]; 5Z-7-OXO 100 nM, ibrutinib 0.8 nM): 54512.9
luminescent signal (CellTiter-Glo) ([1]; 5Z-7-OXO 100 nM, ibrutinib 4 nM): 42472
luminescent signal (CellTiter-Glo) ([1]; 5Z-7-OXO 100 nM, ibrutinib 20 nM): 40678.2
luminescent signal (CellTiter-Glo) ([1]; 5Z-7-OXO 100 nM, ibrutinib 100 nM): 34016
luminescent signal (CellTiter-Glo) ([1]; 5Z-7-OXO 1000 nM, ibrutinib 0 nM): 27259.1
luminescent signal (CellTiter-Glo) ([1]; 5Z-7-OXO 1000 nM, ibrutinib 0.00026 nM): 29868.2
luminescent signal (CellTiter-Glo) ([1]; 5Z-7-OXO 1000 nM, ibrutinib 0.00128 nM): 25315.4
luminescent signal (CellTiter-Glo) ([1]; 5Z-7-OXO 1000 nM, ibrutinib 0.0064 nM): 23976.6
luminescent signal (CellTiter-Glo) ([1]; 5Z-7-OXO 1000 nM, ibrutinib 0.032 nM): 20081.4
luminescent signal (CellTiter-Glo) ([1]; 5Z-7-OXO 1000 nM, ibrutinib 0.16 nM): 15015.6
luminescent signal (CellTiter-Glo) ([1]; 5Z-7-OXO 1000 nM, ibrutinib 0.8 nM): 12627.5
luminescent signal (CellTiter-Glo) ([1]; 5Z-7-OXO 1000 nM, ibrutinib 4 nM): 13032.5
luminescent signal (CellTiter-Glo) ([1]; 5Z-7-OXO 1000 nM, ibrutinib 20 nM): 13048.3
luminescent signal (CellTiter-Glo) ([1]; 5Z-7-OXO 1000 nM, ibrutinib 100 nM): 12982.5
luminescent signal (CellTiter-Glo) ([1]; 5Z-7-OXO 10000 nM, ibrutinib 0 nM): 4563.35
luminescent signal (CellTiter-Glo) ([1]; 5Z-7-OXO 10000 nM, ibrutinib 0.00026 nM): 4729.05
luminescent signal (CellTiter-Glo) ([1]; 5Z-7-OXO 10000 nM, ibrutinib 0.00128 nM): 4731.68
luminescent signal (CellTiter-Glo) ([1]; 5Z-7-OXO 10000 nM, ibrutinib 0.0064 nM): 4700.12
luminescent signal (CellTiter-Glo) ([1]; 5Z-7-OXO 10000 nM, ibrutinib 0.032 nM): 5299.8
luminescent signal (CellTiter-Glo) ([1]; 5Z-7-OXO 10000 nM, ibrutinib 0.16 nM): 5307.69
luminescent signal (CellTiter-Glo) ([1]; 5Z-7-OXO 10000 nM, ibrutinib 0.8 nM): 5441.83
luminescent signal (CellTiter-Glo) ([1]; 5Z-7-OXO 10000 nM, ibrutinib 4 nM): 5749.55
luminescent signal (CellTiter-Glo) ([1]; 5Z-7-OXO 10000 nM, ibrutinib 20 nM): 5957.34
luminescent signal (CellTiter-Glo) ([1]; 5Z-7-OXO 10000 nM, ibrutinib 100 nM): 6244.03
CI value for the 5Z-7-Oxozeaenol/ibrutinib combination ([1]; TMD8 cells): 0.17
synergy score for the 5Z-7-Oxozeaenol/ibrutinib combination ([1]; TMD8 cells): 4.63
synergy with ibrutinib (in words) ([1]; TMD8 cells): Synergy was observed

C=CC(=O)N1CCC[C@@H](n2nc(-c3ccc(Oc4ccccc4)cc3)c3c(N)ncnc32)C1 [ibrutinib, 1-((R)-3-(4-amino-3-(4-phenoxyphenyl)-1H-pyrazolo[3,4-d]pyrimidin-1-yl)piperidin-1-yl)prop-2-en-1-one]
overall response rate [2]: 41%
overall survival [2]: 9.7 month
luminescent signal (CellTiter-Glo) ([1]; 5Z-7-OXO 0 nM, ibrutinib 0.00026 nM): 268264
luminescent signal (CellTiter-Glo) ([1]; 5Z-7-OXO 0 nM, ibrutinib 0.00128 nM): 245879
luminescent signal (CellTiter-Glo) ([1]; 5Z-7-OXO 0 nM, ibrutinib 0.0064 nM): 240905
luminescent signal (CellTiter-Glo) ([1]; 5Z-7-OXO 0 nM, ibrutinib 0.032 nM): 249480
luminescent signal (CellTiter-Glo) ([1]; 5Z-7-OXO 0 nM, ibrutinib 0.16 nM): 190532
luminescent signal (CellTiter-Glo) ([1]; 5Z-7-OXO 0 nM, ibrutinib 0.8 nM): 126175
luminescent signal (CellTiter-Glo) ([1]; 5Z-7-OXO 0 nM, ibrutinib 4 nM): 96203.8
luminescent signal (CellTiter-Glo) ([1]; 5Z-7-OXO 0 nM, ibrutinib 20 nM): 90633.1
luminescent signal (CellTiter-Glo) ([1]; 5Z-7-OXO 0 nM, ibrutinib 100 nM): 94612.5
